Key:
Spodoptera litura [1] = details: for synergistic effects: chemical pesticide combined with the virus, compared with the pesticide alone; for LC50: 3 days after the treatment, NPV 5.5 × 10^5 PIB/ml where combined
[2] = system: third instar larvae of Spodoptera litura; assay: Cumulative death rates of third instar larvae (FIG. 1); type: in vivo; details: Chlorantraniliprole 7.36 ppm alone
Description: The cumulative death rates of the third instar larvae of Spodoptera litura to 10% of the registered concentration of Chlorantraniliprole (7.36 ppm), nucleopolyhedrovirus (5.5×10^5 PIB/ml) and the mixture of 10% of the registered concentration of Chlorantraniliprole+nucleopolyhedrovirus were shown in FIG. 1. It cost 11 days for the treatment of nucleopolyhedrovirus alone to achieve 100% of death rate. For the treatment of Chlorantraniliprole alone, only 80% of death rate was achieved.

[3] = system: third instar larvae of Spodoptera litura; assay: Lethal time (LT50/LT90) of third instar larvae treated with nucleopolyhedrovirus and low concentration pesticides; type: in vivo; details: 1.47 ppm of Chlorantraniliprole alone
Description: When treated with 5.5×10^5 PIB/ml of the Spodoptera litura nucleopolyhedrovirus alone, the 50% lethal time (LT50) of the third instar larvae was 9.2 days. But when treated with the formulation of the present invention, 5.5×10^5 PIB/ml of the virus and 1.47 ppm of Chlorantraniliprole, the LT50 was shortened to 1-2 days and the 90% of lethal time (LT90) was achieved by 3-4 days (see Table 1).

[4] = system: third instar larvae of Spodoptera litura; assay: Indoor experiments: death rates with seven concentrations of Chlorantraniliprole mixed with nucleopolyhedrovirus (FIG. 2); type: in vivo; details: 40 ppm of Chlorantraniliprole
Protocol: In the indoor experiments, the third instar larvae of Spodoptera litura were treated with the mixtures of seven different concentrations of Chlorantraniliprole with the nucleopolyhedrovirus. […] The synergistic effect of the mixture was more significant especially in the comparison of the low death rate caused by the low concentration of Chlorantraniliprole (see FIG. 2).

Spodoptera litura [5] = assay: Control rate of Spodoptera litura in Brassica oleracea crops in the field; type: in vivo; details: for Control rate One week after the first treatment / Control rate One week after the second treatment / Control rate One week after the third treatment / Control rate Two weeks after the third treatment / Control rate mean: field, NPV 10^6 PIB/mL, Chlorfluazuron 5 ppm, Chlorantraniliprole 1.47 ppm; for Control rate One week after the first treatment / Control rate One week after the second treatment / Control rate One week after the third treatment / Control rate Two weeks after the third treatment: Brassica oleracea; for Control rate mean: mean of the four assessments
Description: Although mixing of proper pesticides can achieve synergistic effects, the mixture with current concentration for field application equals to twice the amount of pesticides used (If the viruses or pesticides are originally used individually, the mixture would be the same concentration used together). […] The content of Chlorantraniliprole used in the present invention (2% of the current registered concentration, 1.47 ppm) was 50 folds lower than the existing application technique. When mixing with Spodoptera litura nucleopolyhedrovirus, the LT50 of the third instar larvae was less than 2 days and the LT90 was only 3-4 days. […] However, when mixing the low concentration of Chlorantraniliprole with the virus, only 2% of the current registered amount of Chlorantraniliprole was mixed with the virus, 85-95% of control rate was achieved (Table 3).
The concentration of the Spodoptera litura nucleopolyhedrovirus: 10^6 PIB/mL; Chlorfluazuron was 5 ppm (20% of the current registered concentration); Chlorantraniliprole was 1.47 ppm (2% of the current registered concentration)

For `N#Cc1ccc(CC(=NNC(=O)Nc2ccc(OC(F)(F)F)cc2)c2cccc(C(F)(F)F)c2)cc1` (mixture of isomers) [Metaflumizone], the synergistic effects (Spodoptera litura [1]) was “interfered effects”.

`CNC(=O)c1cc(Cl)cc(C)c1NC(=O)c1cc(Br)nn1-c1ncccc1Cl` [Chlorantraniliprole] was tested, and the death rate achieved [2] was 80%, the LC50 (Spodoptera litura [1]) was 1.36 ppm and the synergistic effects (Spodoptera litura [1]) was 4 folds. The pest control effect [3] was “no pest control effect”, the death rate [4] was 100% and the “Control rate One week after the first treatment” value (Spodoptera litura [5]) was 31.6%. For the same compound, the “Control rate One week after the second treatment” value (Spodoptera litura [5]) was 22.9%, the “Control rate One week after the third treatment” value (Spodoptera litura [5]) was 77.3% and the “Control rate Two weeks after the third treatment” value (Spodoptera litura [5]) was −5%. For the same compound, the “pest control effects in the field” value (Spodoptera litura [5]; low concentration (1.47 ppm) administered alone) was “no pest control effects” and the Control rate mean (Spodoptera litura [5]) was 32%.

`CCOCn1c(-c2ccc(Cl)cc2)c(C#N)c(Br)c1C(F)(F)F` [Chlorfenapyr] was tested, and the LC50 (Spodoptera litura [1]) was 11.8 ppm.

In the case of `O=C(NC(=O)c1c(F)cccc1F)Nc1cc(Cl)c(Oc2ncc(C(F)(F)F)cc2Cl)c(Cl)c1` [Chlorfluazuron], the LC50 (Spodoptera litura [1]) is reported as 7.48 ppm, the “Control rate One week after the first treatment” value (Spodoptera litura [5]) is reported as −3.2% and the “Control rate One week after the second treatment” value (Spodoptera litura [5]) is reported as −50.3%. The “Control rate One week after the third treatment” value (Spodoptera litura [5]) was 38.6%, the “Control rate Two weeks after the third treatment” value (Spodoptera litura [5]) was 19.2% and the Control rate mean (Spodoptera litura [5]) was 1.0%.

— patent US9808016B2, “Pesticide composition for shortening the virus lethal time” (priority 2012, dated 2017)
